Experimental findings from patent US20130041005A1, “PHARMACEUTICAL COMPOSITIONS COMPRISING NEUROPILIN INHIBITORS, AND THEIR USE FOR THE PREVENTION AND/OR TREATMENT OF ANGIOGENIC DISORDERS AND CANCERS” (TRAGEX PHARMA, priority 2011, published 2013) are described below.

The test concerns MDA-MB-231 cells. Put plainly: In vivo MDA-MB-231 tumor study in NOD-SCID mice. The note with it: for tumor size: oral gavage (FIG. 8B); for percentage of survival at day 35: oral gavage (FIG. 8C). The protocol:
Female (NOD-SCID) mice 5-6 weeks old were injected subcutaneously with MDA-MB-231 cells (5.10^6) at a single site on their right flanks. Tumors were allowed to grow (19 days) to less than […] before being pair-matched by tumor size into treatment groups (8 mice/group). One group was treated with vehicles (8 mice/group receiving cremofor 12.5%/ethanol 12.5%/H2O), one group was treated with 10 mg/kg of the compound 1 of the invention (8 mice/group receiving compound 1+cremofor 12.5%/ethanol 12.5%/H2O), one group was treated with 50 mg/kg of the compound 1 of the invention ([…] receiving compound 1+cremofor 12.5%/ethanol 12.5%/H2O). All groups received daily by oral gavages for 5 consecutive days/weeks approximately 100 μL of a solution containing the compound 1 of the invention. Mice were weighed regularly to assess toxicity of the treatments and the tumors were measured with calipers (width×width×length×Pi/6) to determine tumor growth. Mice survival was assessed during the study and metastatic development was investigated in lung, spleen and liver.

As for `Cc1ccc(-c2nc3ccccc3[nH]2)cc1NC(=S)NC(=O)c1ccc2c(c1)OCCO2` [Compound 1, N-[5-(1H-benzimidazol-2-yl)-2-methylphenyl]-N′-(2,3-dihydro-1,4-benzodioxin-6-ylcarbonyl)thiourea], the tumor size entry runs as follows: (10 mg/kg) “tumor size was smaller”; (50 mg/kg) “tumor size was smaller”. Further, the “percentage of survival at day 35” value is recorded as “about 70%” (10 mg/kg) and 100% (50 mg/kg).
